{"source": "patent US8895522B2", "about": "“Composition and method for the prevention, treatment and/or alleviation of an inflammatory disease” (Index Pharmaceuticals AB, priority 2005, dated 2014)", "key": {"[1]": {"system": "steroid refractory/dependent IBD patients (ulcerative colitis and Crohn's disease)", "test": "Human pilot proof of concept study in steroid resistant/dependent patients", "format": "in vivo", "details": "for Clinical response at week 1, responders: 5/7 patients, on concomitant steroid therapies", "method": "A small pilot study was conducted in steroid refractory/dependent IBD patients with the following objectives.\nPrimary objective: To assess the safety issues regarding the use of the DNA based oligonucleotide denoted as SEQ.ID.NO.1 in ulcerative colitis and Crohn's disease patients.\nSecondary objective: To explore the clinical efficacy as determined by endoscopic and clinical remission/improvement rates, histological improvement and changes in clinical laboratory parameters.\nThe study was placebo controlled; double blinded single dose and considered patients that were unresponsive to corticosteroids or corticosteroid dependent who where on concomitant steroid therapies.\nDoses levels used were 3 mg and 30 mg given as a single rectal administration"}, "human PBMC [2]": {"system": "human PBMC", "test": "IL-10 induction from healthy human PBMC by SEQ.ID.NO 1 after dexamethasone pre-incubation (ELISA)", "format": "cell-based", "method": "ELISA assays where performed according to the manufactures recommended guidelines (R&D systems). Plates were analyzed using AID ELISpot reader system (Autoimmun Diagnostika GmbH, Strassberg Germany).\nFor this assay again 500,000 PBMC cells per well, derived from blood from healthy human donors, were incubated for 12 hours in the presence of various concentrations of dexamethasone, after which, the cells were washed and fresh medium as added. The cells were then allowed to further incubate in the presence of either 25 uM or 100 uM of SEQ.ID.NO 1 for an additional 24 hours after which levels of IL-10 were measured using a commercial available IL-10 ELISA kit."}, "human PBMC [3]": {"system": "human PBMC", "test": "Induction of IFN-alpha from healthy human PBMC (ELISpot)", "format": "cell-based", "details": "PBMC from 10 healthy individuals, 48 hours", "method": "(§1) Whole blood was obtained from healthy blood donors. PBMCs were prepared from 30 ml whole blood according to the following protocol:\n(§2) 30 ml blood was transferred directly into heparinized tubes. All blood was transferred into one 50 ml Falcon tube and PBS added up to 50 ml. 15 ml Ficoll (17-1440-03, obtained from Amersham Bioscience AB, Uppsala) was then added into two falcon tubes (50 ml). The PBS-treated blood was then carefully added on the top of to Ficoll, 25 ml to each tube. The tubes were then centrifuged 25 min at 1700 RPM at RT (20° C.).\nRPMIc medium was prepared under sterile conditions, using a 0.22 uM filter. (RPMIc denotes a RPMI 1640 culture medium (R0883, Sigma) supplemented with 5% heat-inactivated (56° C.,1 h) FCS 1.5 mM L-glutamine (G7513, Sigma), 100 U/ml penicillin and 100 ug/ml streptomycin, PEST (P0781, Sigma), hepes (H0887, Sigma), and gentamycin (G1272, Sigma)).\nThe interphase was carefully pipetted from the two tubes into 2x 50mi Falcon tubes. PBS was added up to 50 ml in each tube, and the tubes centrifuged for 10 min at 1700 RPM (4° C.).\nThe supernatant was discarded, and PBS added to 30 ml, whereupon the tubes were centrifuged at 10 min at 1500 RPM (4° C.). Again, the supernatant was discarded, 10 ml PBS added, and the pellets from the two falcon tubes pooled.\nThe cells were counted and left in PBS, then centrifuged at 1200 RPM, 10 min. Medium was then added to obtain the concentration of interest, and the cells counted (16 squares)×3. The mean value was calculated and multiplied with the dilution factor×10^4=cells/ml. Diluting the cells to 10 million/ml will result in 500.000 cells/50 ul medium, 6 million/ml will be 300.000/50 ul medium.\nElispot assays where performed according to the manufactures recommended guidelines (MabTech) and the plates were analyzed using an AID ELISpot reader system (Autoimmun Diagnostika GmbH, Strassberg, Germany).\nFor this assay again 500,000 PBMC cells per well, derived from healthy human blood were incubated for 48 hours in the presence of the different oligonucleotides. Specifically, SEQ.ID.NO 1, SEQ.ID.NO 2, and SEQ.ID.NO 8. Following incubation, the wells were developed according to the kit suppliers recommendations and the average number of positive cells producing IFN-alpha per well were determined using an AID ELISpot reader."}, "human PBMC [4]": {"system": "human PBMC", "test": "Induction of IFN-gamma from healthy human PBMC (ELISpot)", "format": "cell-based", "details": "PBMC from 7 healthy individuals, 48 hours, FIG. 12", "method": "as §1, §2\nRPMIc medium was prepared under sterile conditions, using a 0.22 uM filter. (RPMIc denotes a RPMI 1640 culture medium (R0883, Sigma) supplemented with 5% heat-inactivated (56° C.,1 h) FCS 1.5 mM L-glutamine (G7513, Sigma), 100 U/ml penicillin and 100 ug/ml streptomycin, PEST (P0781, Sigma), hepes (H0887, Sigma), and gentamycin (G1272, Sigma)). […]\nThe cells were counted and left in PBS, then centrifuged at 1200 RPM, 10 min. Medium was then added to obtain the concentration of interest, and the cells counted (16 squares)×3. The mean value was calculated and multiplied with the dilution factor×10^4=cells/ml. […]\nElispot assays where performed according to the manufactures recommended guidelines (MabTech) and the plates were analyzed using an AID ELISpot reader system (Autoimmun Diagnostika GmbH, Strassberg, Germany). […]"}, "[5]": {"system": "patients with mild to moderately active ulcerative colitis", "test": "Clinical phase II study in ulcerative colitis patients", "format": "in vivo, human", "details": "for Clinical response at Week 1: No, n (%) / Clinical response at Week 1: Yes, n (%): single rectal dose, ITT/Safety population; for clinical response rate at week 1, all receiving active drug: all four dose levels pooled (26/119)", "method": "A large 150 patient study performed in ulcerative colitis patients who were neither on concomitant steroid therapies nor were described as being steroid refractory/dependent.\nPrimary objective: To evaluate the ability of each of the four dose levels (0.3 mg, 3 mg, 30 mg and 100 mg) of oligonucleotide SEQ.ID.NO.1 as an anti-inflammatory therapy to induce clinical remission in patients with mild to moderately active ulcerative colitis (UC), as compared with placebo.\nSecondary objective: To assess the tolerability of single rectal doses of SEQ.ID.NO.1 oligonucleotide and to further evaluate the efficacy and safety of SEQ.ID.NO.1 oligonucleotide at four dose levels and to assess the pharmacokinetics of SEQ.ID.NO.1 oligonucleotide after rectal administration, as compared to placebo."}, "[6]": {"details": "single rectal administration 3 mg or 30 mg"}}, "note": "Entries after “also recorded” stand apart in the source; their conditions may differ. In the oligonucleotide strings, read from the 5' end, every base follows the letter of its sugar. An asterisk marks phosphorothioate; unmarked linkages are phosphodiester. Other units and linkages are bracketed, terminal groups are in braces. A string of capitals states the bases alone. d = 2'-deoxy (DNA)"}
{"substance": "5′-G*G*A*ACAGTTCGTCCAT*G*G*C-3′ (DNA dG*dG*dA*dAdCdAdGdTdTdCdGdTdCdCdAdT*dG*dG*dC) [SEQ.ID.NO 1, (Hu p65)AS, CpG-containing ODN; * marks phosphorothioate linkage, others phosphodiester]", "values": [{"measurement": "time to response of responding patients", "setting": "[1]; after single rectal administration", "result": "within a week"}, {"measurement": "patients still in remission and steroid free", "setting": "[1]; of the 7 patients that received the drug", "result": "two from the 7 patients"}, {"measurement": "serious adverse events", "setting": "[1]; [6]", "result": "no serious adverse events were recorded"}, {"measurement": "Clinical response at week 1, responders", "setting": "[1]; [6]", "result": 71, "unit": "%"}, {"measurement": "Clinical response at week 1, responders", "setting": "[1]; single rectal administration 3 mg or 30 mg, listed as Active", "result": 71, "unit": "%"}, {"measurement": "efficacy", "setting": "[1]; single rectal administration, 3 mg and 30 mg dose groups", "result": "good efficacy in both dose groups"}, {"measurement": "IL-10 production", "setting": "human PBMC [2]; 25 uM SEQ.ID.NO 1 for 24 hours after 12 hours prior incubation with dexamethasone", "result": "little production of IL-10"}, {"measurement": "IL-10 production", "setting": "human PBMC [2]; 100 uM SEQ.ID.NO 1 for 24 hours after 12 hours prior incubation with dexamethasone (most apparent at 10^−10 M)", "result": "dramatic increase in the amount of IL-10 produced; also recorded: levels higher than either mono treatment alone"}, {"measurement": "concentration at which induction of IFN-alpha starts / is apparent", "setting": "human PBMC [3]", "result": 1, "unit": "µM"}, {"measurement": "induction of IFN-alpha producing cells", "setting": "human PBMC [3]; FIG. 13", "result": "clear inducing potential"}, {"measurement": "concentration at which induction of IFN-gamma becomes apparent", "setting": "human PBMC [4]", "result": "around 25 uM"}, {"measurement": "Clinical response at Week 1: No, n (%)", "setting": "[5]; 0.3 mg (N = 31)", "result": "23 (74.2) n (%)"}, {"measurement": "Clinical response at Week 1: Yes, n (%)", "setting": "[5]; 0.3 mg (N = 31)", "result": "8 (25.8) n (%)"}, {"measurement": "Clinical response at Week 1: No, n (%)", "setting": "[5]; 3 mg (N = 29)", "result": "23 (79.3) n (%)"}, {"measurement": "Clinical response at Week 1: Yes, n (%)", "setting": "[5]; 3 mg (N = 29)", "result": "6 (20.7) n (%)"}, {"measurement": "Clinical response at Week 1: No, n (%)", "setting": "[5]; 30 mg (N = 30)", "result": "23 (76.7) n (%)"}, {"measurement": "Clinical response at Week 1: Yes, n (%)", "setting": "[5]; 30 mg (N = 30)", "result": "7 (23.3) n (%)"}, {"measurement": "Clinical response at Week 1: No, n (%)", "setting": "[5]; 100 mg (N = 29)", "result": "24 (82.8) n (%)"}, {"measurement": "Clinical response at Week 1: Yes, n (%)", "setting": "[5]; 100 mg (N = 29)", "result": "5 (17.2) n (%)"}, {"measurement": "clinical response rate at week 1, all receiving active drug", "setting": "[5]", "result": 22, "unit": "%"}, {"measurement": "clinical response rate at week 1, all receiving active drug", "setting": "[5]; listed as Active", "result": 22, "unit": "%"}, {"measurement": "induction of clinical, endoscopic or histopathological remissions or responses", "setting": "[5]; one single dose from 0.3 to 100 mg, over a 12 week period", "result": "could not confirm"}, {"measurement": "safety profile", "setting": "[5]; single rectal doses 0.3 to 100 mg", "result": "good safety profile"}]}
